The source made the active and inactive calls.
Key:
[1] = growth inhibition of yeast DHODH-expressing 3D7 parasites – SYBR Green, dry powder samples, dose response (AID 1159570); assay type: functional, cell-based;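 further: parasite growth measured after 72 hours of compound exposure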
[2] = toxicity to human HepG2 hepatoma cells – cell-based, plate reader, dry powder samples, cytotoxicity control, dose response (AID 1159569); assay type: functional;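 further: inhibitor potency with signal falling toward the positive control level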
[3] = P. falciparum Dd2 growth inhibitors, dose response, SYBR Green, cherry-picked samples (AID 1159567); assay type: functional, cell-based
[4] = Dd2 malaria parasite growth inhibition potency – SYBR Green, dry powder samples, dose response (AID 1159566); assay type: functional, cell-based;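 further: potency for growth inhibition with lower SYBR green DNA signal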
[5] = growth inhibition of PfATP4-mutant resistant parasites – NITD609-resistant line, SYBR Green, dry powder, dose response (AID 1159571); assay type: functional, cell-based;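 further: parasites synchronized at ring stage by sorbitol before testing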
[6] = rise of 2N DNA cells, HeLa – IC50, dose response (AID 1117349); assay type: functional, cell-based
[7] = rise of 4N DNA cells, HeLa – IC50, dose response (AID 1117351); assay type: functional, cell-based
cells [8] = conditions: A549
[9] = target: T1, Short transient receptor potential channel 4 (Mus musculus, UniProt Q9QUQ5); test: calcium entry via TRPC4 opening agents – cell-based, HEK293 TRPC4/mu-opioid, Fluo-4 calcium, dose response (AID 434937); assay type: functional
T1 sequence (Q9QUQ5 whole entry): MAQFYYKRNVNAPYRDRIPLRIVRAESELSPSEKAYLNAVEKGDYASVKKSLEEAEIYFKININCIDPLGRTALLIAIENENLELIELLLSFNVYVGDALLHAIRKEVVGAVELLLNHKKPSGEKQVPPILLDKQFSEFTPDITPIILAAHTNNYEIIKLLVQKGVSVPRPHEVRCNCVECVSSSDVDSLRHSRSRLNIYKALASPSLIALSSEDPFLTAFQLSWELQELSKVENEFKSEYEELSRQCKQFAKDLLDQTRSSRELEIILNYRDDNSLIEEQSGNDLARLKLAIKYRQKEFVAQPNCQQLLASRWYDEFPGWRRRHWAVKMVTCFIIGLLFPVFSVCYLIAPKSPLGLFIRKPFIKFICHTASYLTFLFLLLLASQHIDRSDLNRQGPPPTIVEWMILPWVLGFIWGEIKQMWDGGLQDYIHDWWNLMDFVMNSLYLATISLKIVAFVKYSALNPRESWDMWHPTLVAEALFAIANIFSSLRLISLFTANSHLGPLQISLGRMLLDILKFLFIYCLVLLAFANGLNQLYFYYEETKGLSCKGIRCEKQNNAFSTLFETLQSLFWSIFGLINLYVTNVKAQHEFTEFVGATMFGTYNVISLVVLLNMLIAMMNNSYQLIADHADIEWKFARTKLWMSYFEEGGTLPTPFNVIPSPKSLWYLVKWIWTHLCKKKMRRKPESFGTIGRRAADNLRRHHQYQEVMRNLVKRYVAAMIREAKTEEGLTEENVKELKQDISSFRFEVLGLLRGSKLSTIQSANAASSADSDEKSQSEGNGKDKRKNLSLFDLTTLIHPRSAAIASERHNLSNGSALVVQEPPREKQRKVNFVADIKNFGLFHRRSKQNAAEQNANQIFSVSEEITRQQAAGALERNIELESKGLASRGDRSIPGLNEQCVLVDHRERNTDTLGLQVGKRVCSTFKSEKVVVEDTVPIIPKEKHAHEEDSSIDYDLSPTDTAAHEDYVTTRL

cells [10] = assay type: functional, cell-based
[11] = target: T2, Trace amine-associated receptor 1 (Homo sapiens, UniProt Q96RJ0); test: Fluorescence-based cell-based high throughput dose response assay to identify agonists of the human trace amine associated receptor 1 (TAAR1).; assay type: functional
T2 sequence (Q96RJ0 whole entry): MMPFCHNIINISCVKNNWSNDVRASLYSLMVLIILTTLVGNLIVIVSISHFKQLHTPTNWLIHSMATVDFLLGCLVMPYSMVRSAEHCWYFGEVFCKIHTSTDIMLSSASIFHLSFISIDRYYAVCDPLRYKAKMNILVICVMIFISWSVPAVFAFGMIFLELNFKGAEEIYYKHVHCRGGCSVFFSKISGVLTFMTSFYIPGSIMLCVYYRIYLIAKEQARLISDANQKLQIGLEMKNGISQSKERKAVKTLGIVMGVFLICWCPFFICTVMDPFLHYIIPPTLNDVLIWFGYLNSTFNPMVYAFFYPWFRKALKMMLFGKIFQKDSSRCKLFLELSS

[12] = target: T2, Trace amine-associated receptor 1; test: Counterscreen for agonists of the human trace amine associated receptor 1 (hTAAR1): Fluorescence-based cell-based high throughput dose response assay to identify hTAAR1 agonist that also desensitize TAAR1 receptor response.; assay type: functional
cells [13] = assay type: functional, cell-based; remark: listed apart in the source
fMet-Leu-Phe receptor = fMet-Leu-Phe receptor (Homo sapiens, UniProt P21462); test: formyl peptide receptor binders – dose response (AID 519); assay type: functional
Paired box protein Pax-8 = Paired box protein Pax-8 (Homo sapiens, UniProt Q06710); test: PAX8 transcriptional activity inhibition in RMG-I – RMG-I cells, luciferase, cherry-pick, dose response (AID 687027); assay type: functional, cell-based;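 further: luciferase reporter driven by Pax8 target thyroperoxidase promoter measured by SteadyGlo luminescence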
[14] = OVCAR-3 cell viability loss – plate reader, dry powder samples, PAX8 inhibitor project, dose response (AID 743044); assay type: functional, cell-based
[15] = general cell-killing toxicity readout – plate reader, dry powder samples, cytotoxicity control for PAX8 inhibitor project, dose response (AID 743021); assay type: functional, cell-based
[16] = OVCAR8 cell viability loss – plate reader, dry powder samples, PAX8 project, dose response (AID 743197); assay type: functional, cell-based; conditions: OVCAR-8
[17] = CellTiter-Glo luminescence survival assay, SW480 colon tumor line, concentration-response curve, half-maximal inhibitory concentration (AID 1117338); assay type: functional
[18] = RKO cell viability reduction, dose response, CellTiter-Glo luminescence (AID 1117322); assay type: functional
[19] = cytotoxicity toward HCT116 cells – cell-based, CellTiter-Glo luminescence, IC50, dose response (AID 1117332); assay type: functional; conditions: HCT-116
[20] = SNU-C1 cell viability reduction, dose response, CellTiter-Glo luminescence (AID 1117323); assay type: functional, cell-based
[21] = cytotoxicity toward Colo320 cells – cell-based, CellTiter-Glo luminescence, IC50, dose response (AID 1117334); assay type: functional; conditions: COLO 320
[22] = cytotoxicity toward HT-29 cells – cell-based, CellTiter-Glo luminescence, IC50, dose response (AID 1117330); assay type: functional
[23] = Reduced DLD-1 viability, concentration-response, CellTiter-Glo luminescence (AID 1117352); assay type: functional
[24] = A549 cell cytotoxicity, dose response, cytotoxicity control, plate reader, cherry-pick, antagonist series (AID 743412); assay type: functional, cell-based
[25] = viability loss in HEK293 cells – cell-based, plate reader, cherry-picked samples, cytotoxicity control, dose response (AID 743446); assay type: functional
Kallikrein-7 = Kallikrein-7 (Homo sapiens, UniProt P49862); test: Fluorescence Intensity-based biochemical primary high throughput dose response assay to identify activators of kallikrein-7 (K7) zymogen.
[26] = toxicity toward HepG2 liver cells – cell-based, plate reader, cherry-pick, antagonist series, cytotoxicity control, dose response (AID 743416); assay type: functional
[27] = blockers of bursicon-stimulated LGR2 cAMP reporter – cell-based, HEK293, CRE-luciferase reporter, cherry pick, set 2, dose response (AID 743343); assay type: functional;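 further: transfected cells were stimulated with diluted bursicon conditioned medium after compound addition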
[28] = blockade of melanocortin 4 receptor signaling – cell-based, plate reader, cherry pick, counter-screen for LGR2 antagonist project, dose response (AID 743444); assay type: functional;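 further: transfected HEK 293 cells stimulated with alpha-MSH peptide; potency of inhibitors of the alpha-MSH evoked signal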
[29] = target: Endoplasmic reticulum aminopeptidase 1 (Homo sapiens, UniProt Q9NZ08); test: inhibition of human ERAP1 enzyme activity – biochemical, cherry-pick, set 2, plate reader, dose response (AID 743314)
[30] = target: T3, Heat shock factor protein 1 (Mus musculus, UniProt P38532); test: enhancement of HSF1-driven luciferase signal – cell-based, NIH3T3, luminescence, dose retest, confirmation (AID 435004); assay type: functional;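 further: stress induced by proteasome inhibitor MG132 added 30 min after compound; luciferase reporter driven by HSF1 response element in NIH3T3 cells; actives raise luminescence as potentiators of the MG132 stress response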
T3 sequence (P38532 whole entry): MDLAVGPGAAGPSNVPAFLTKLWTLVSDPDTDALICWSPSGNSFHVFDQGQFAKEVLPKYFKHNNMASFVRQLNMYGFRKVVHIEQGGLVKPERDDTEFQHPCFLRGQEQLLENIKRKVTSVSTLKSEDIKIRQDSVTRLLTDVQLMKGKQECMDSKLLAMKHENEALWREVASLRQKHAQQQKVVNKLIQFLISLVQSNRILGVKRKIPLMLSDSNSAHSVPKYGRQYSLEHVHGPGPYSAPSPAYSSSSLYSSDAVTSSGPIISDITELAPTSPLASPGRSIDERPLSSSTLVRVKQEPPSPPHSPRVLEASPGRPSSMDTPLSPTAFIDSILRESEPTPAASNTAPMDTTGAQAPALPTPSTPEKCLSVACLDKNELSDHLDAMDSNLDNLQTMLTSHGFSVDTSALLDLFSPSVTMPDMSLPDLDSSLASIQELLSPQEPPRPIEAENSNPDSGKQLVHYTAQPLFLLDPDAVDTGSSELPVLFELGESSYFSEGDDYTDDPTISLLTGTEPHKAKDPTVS

Genome polyprotein = Genome polyprotein (dengue virus type 2, UniProt P29990); test: flavivirus cap methylation enzyme inhibition – biochemical, confirmation dose response, primary screen (AID 588689); assay type: functional
[31] = target: Histone-lysine N-methyltransferase NSD2 (Homo sapiens, UniProt O96028); assay type: biochemical
[32] = HGIII-sPLA2 enzyme inhibition potency – biochemical, QFRET, IC50, dose response (AID 743457);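 further: green fluorescence rise as the enzyme cleaves BODIPY PC-A2 in liposomes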
[33] = IC50 of insulin release inhibition, rat insulinoma INS-1E line, 5 mM glucose, cell-based (AID 1117331); assay type: functional
[34] = target: Disintegrin and metalloproteinase domain-containing protein 17 (Homo sapiens, UniProt P78536); test: exosite inhibitors of ADAM17, dose response, biochemical (AID 743260)
[35] = inhibition of ADAM10 peptide cleavage – biochemical, FRET peptide substrate, recombinant human ADAM10, selectivity assay for ADAM17 exosite inhibitor project, dose response (AID 743259);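 further: ADAM10 enzyme cleaving a FRET peptide substrate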

fMet-Leu-Phe receptor, sequence (P21462 whole entry): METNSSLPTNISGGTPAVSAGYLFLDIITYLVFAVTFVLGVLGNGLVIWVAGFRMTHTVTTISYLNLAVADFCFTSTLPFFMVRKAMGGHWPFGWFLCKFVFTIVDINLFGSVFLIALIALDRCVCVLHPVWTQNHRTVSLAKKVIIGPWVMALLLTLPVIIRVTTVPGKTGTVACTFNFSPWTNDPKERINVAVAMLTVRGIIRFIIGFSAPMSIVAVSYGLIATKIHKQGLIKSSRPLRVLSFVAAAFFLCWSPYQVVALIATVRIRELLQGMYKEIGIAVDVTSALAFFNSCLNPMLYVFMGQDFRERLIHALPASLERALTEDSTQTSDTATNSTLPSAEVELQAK
Endoplasmic reticulum aminopeptidase 1, sequence (Q9NZ08 whole entry): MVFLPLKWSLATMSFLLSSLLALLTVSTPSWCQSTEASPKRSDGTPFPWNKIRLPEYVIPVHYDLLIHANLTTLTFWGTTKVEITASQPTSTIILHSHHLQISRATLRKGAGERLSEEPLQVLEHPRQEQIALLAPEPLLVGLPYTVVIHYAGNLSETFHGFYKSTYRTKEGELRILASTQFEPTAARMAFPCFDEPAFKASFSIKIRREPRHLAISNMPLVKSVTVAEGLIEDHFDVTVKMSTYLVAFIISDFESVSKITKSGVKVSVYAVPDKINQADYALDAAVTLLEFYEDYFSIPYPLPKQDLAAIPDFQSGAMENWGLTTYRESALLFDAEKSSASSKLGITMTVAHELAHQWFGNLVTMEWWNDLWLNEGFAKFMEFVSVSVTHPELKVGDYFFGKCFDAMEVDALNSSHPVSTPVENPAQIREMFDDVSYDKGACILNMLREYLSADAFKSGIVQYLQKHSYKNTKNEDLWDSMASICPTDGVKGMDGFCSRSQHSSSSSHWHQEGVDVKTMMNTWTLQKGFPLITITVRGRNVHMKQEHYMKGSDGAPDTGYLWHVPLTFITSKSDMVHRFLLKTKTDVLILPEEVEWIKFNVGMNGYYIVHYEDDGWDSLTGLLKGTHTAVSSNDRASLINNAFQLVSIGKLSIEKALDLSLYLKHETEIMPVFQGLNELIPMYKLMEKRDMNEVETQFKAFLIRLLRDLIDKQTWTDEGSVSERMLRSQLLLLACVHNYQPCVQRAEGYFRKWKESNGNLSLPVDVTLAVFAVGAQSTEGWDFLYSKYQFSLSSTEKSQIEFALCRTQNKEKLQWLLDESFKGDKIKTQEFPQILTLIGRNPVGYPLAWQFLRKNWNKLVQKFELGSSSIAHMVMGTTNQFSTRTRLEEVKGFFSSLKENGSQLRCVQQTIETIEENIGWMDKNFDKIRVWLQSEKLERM
Kallikrein-7, sequence (P49862 whole entry): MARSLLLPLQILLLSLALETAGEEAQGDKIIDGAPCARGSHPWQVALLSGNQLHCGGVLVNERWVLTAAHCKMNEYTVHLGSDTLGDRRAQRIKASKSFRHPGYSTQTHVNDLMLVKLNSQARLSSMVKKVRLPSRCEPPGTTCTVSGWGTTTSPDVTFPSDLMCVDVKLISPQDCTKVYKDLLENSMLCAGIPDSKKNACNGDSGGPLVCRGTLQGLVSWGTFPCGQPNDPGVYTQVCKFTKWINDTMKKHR
Paired box protein Pax-8, sequence (Q06710 whole entry): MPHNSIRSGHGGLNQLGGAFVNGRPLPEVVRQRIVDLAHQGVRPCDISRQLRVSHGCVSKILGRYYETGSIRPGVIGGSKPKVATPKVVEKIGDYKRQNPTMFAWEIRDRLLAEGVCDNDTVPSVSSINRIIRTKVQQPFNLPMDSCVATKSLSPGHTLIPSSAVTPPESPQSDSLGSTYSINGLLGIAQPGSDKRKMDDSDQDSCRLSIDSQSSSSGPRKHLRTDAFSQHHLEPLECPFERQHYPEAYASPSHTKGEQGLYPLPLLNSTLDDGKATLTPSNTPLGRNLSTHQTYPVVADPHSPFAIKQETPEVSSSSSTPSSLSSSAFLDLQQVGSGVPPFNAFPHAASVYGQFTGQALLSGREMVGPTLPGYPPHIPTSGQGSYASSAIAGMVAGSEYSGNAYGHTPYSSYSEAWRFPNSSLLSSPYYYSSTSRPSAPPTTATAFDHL
Genome polyprotein, sequence (P29990 2492-3391 limits assumed): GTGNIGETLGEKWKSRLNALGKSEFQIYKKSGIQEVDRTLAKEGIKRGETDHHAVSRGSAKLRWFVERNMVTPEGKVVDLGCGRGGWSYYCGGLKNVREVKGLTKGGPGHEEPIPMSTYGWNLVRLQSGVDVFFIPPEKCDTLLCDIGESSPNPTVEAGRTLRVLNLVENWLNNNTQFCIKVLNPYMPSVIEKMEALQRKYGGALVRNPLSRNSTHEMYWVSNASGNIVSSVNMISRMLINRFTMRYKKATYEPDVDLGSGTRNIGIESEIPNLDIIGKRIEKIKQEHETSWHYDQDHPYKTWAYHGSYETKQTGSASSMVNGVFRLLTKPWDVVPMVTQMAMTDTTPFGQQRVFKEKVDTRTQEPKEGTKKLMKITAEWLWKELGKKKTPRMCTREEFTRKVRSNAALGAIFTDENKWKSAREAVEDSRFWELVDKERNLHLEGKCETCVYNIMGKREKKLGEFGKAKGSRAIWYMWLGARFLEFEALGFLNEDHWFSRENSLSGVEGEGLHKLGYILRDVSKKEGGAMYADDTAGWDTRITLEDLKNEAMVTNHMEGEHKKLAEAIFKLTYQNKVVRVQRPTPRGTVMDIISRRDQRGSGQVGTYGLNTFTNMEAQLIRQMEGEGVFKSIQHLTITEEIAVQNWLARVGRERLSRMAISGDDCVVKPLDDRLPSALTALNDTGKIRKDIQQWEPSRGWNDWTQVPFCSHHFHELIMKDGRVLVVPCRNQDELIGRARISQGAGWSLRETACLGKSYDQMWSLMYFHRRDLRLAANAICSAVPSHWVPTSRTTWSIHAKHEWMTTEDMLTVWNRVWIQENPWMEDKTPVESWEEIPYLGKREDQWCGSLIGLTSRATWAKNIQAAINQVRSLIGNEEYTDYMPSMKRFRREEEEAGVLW
Histone-lysine N-methyltransferase NSD2, sequence (O96028 whole entry): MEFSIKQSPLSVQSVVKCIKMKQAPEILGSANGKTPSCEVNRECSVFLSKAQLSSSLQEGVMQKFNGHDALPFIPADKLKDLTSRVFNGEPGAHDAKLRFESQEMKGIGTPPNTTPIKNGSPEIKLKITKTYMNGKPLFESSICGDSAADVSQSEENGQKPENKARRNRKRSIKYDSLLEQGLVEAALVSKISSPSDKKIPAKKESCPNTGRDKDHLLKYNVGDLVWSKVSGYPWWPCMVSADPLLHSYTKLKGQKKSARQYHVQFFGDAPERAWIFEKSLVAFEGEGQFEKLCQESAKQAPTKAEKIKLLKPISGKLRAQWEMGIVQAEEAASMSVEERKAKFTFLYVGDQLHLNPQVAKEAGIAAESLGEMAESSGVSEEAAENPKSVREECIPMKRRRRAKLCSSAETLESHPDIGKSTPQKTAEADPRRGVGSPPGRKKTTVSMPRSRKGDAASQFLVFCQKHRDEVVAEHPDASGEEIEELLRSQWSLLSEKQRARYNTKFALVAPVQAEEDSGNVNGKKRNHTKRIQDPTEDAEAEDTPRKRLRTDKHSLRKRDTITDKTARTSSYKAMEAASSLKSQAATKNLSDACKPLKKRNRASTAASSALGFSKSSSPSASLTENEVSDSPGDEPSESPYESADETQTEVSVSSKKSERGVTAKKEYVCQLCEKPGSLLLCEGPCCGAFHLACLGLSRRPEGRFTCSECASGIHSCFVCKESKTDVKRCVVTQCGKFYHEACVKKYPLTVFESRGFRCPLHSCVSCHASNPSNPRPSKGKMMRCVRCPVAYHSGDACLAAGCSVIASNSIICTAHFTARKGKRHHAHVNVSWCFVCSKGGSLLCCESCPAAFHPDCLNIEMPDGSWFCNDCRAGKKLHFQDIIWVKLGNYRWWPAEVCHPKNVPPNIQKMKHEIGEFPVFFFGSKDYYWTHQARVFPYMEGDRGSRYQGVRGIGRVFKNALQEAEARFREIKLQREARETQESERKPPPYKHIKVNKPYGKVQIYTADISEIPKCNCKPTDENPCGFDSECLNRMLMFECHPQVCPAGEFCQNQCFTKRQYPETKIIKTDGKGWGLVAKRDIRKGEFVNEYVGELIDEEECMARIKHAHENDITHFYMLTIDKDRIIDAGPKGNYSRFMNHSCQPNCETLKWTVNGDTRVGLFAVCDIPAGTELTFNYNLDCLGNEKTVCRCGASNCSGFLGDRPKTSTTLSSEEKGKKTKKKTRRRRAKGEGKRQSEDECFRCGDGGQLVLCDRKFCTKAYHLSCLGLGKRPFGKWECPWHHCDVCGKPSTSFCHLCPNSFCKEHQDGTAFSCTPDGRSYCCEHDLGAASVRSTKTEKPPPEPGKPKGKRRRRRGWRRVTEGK

## O=S(=O)(c1ccc(F)cc1)N1CCCCN2[C@@H](CO)[C@@H](c3ccc(C4=CCCCC4)cc3)[C@@H]2C1
[1]
  AC50: 1.15 µM (active)
[2]
  AC50: 12.8 µM (active)
[3]
  AC50: 1.69 µM (active)
[4]
  AC50: 1.07 µM (active)
[5]
  AC50: 0.915 µM (active)

## C1CN(P2(N3CC3)=NP(N3CC3)(N3CC3)=NP(N3CC3)(N3CC3)=N2)CCO1 (centres undefined) [FOTRETAMINE]
[6]
  IC50: > 10 µM (inactive)
[7]
  IC50: > 10 µM (inactive)

## COc1cc(C2C3=C(CC(C)(C)CC3=O)N(C)C3=C2C(=O)CC(C)(C)C3)cc(Br)c1O
Cells [8]
  AC50: > 52 µM (inactive)

## CCOC(=O)C1CCCN(C(c2ccccn2)c2c(C)[nH]c3ccccc23)C1 (centres undefined)
[9]
  EC50: 5.31 µM (active)
Cells [10]
  IC50: > 29.9 µM (inactive)
[11]
  EC50: 22.3 µM (inactive)
[12]
  IC50: 2.65 µM (active)
Cells [13]
  EC50: > 29.9 µM (inactive)

## Cc1cc(N2C(=O)C(O)=C(C(=O)c3ccc(F)cc3)C2c2cccc(Br)c2)no1 (centres undefined)
fMet-Leu-Phe receptor
  Ki: > 66.7 µM (inactive)

## CN(C)CC(=O)N1CCCCN2[C@H](CO)[C@H](c3ccc(/C=C/c4ccccc4)cc3)[C@H]2C1
Paired box protein Pax-8
  AC50: 9.31 µM (active)
[14]
  AC50: 47.6 µM (active)
[15]
  AC50: 42.9 µM (active)
[16]
  AC50: 69.1 µM (active)

## Cc1onc(-c2ccccc2)c1-c1ccc(S(N)(=O)=O)cc1 [VALDECOXIB]
[17]
  IC50: > 20 µM (inactive)
[18]
  IC50: > 20 µM (inactive)
[19]
  IC50: > 20 µM (inactive)
[20]
  IC50: > 20 µM (inactive)
[21]
  IC50: > 20 µM (inactive)
[22]
  IC50: > 20 µM (inactive)
[23]
  IC50: > 20 µM (inactive)

## O=c1cc(-c2c(F)c(F)c(F)c(F)c2F)oc2ccccc12
[24]
  AC50: 17.4 µM (active)
[25]
  AC50: 37.5 µM (active)

## Nc1ccc(Cl)cc1C(=O)OCC(=O)NC1CCS(=O)(=O)C1 (centres undefined)
Kallikrein-7
  EC50: > 7.72 µM (active)

## C[C@H]1CN([C@@H](C)CO)C(=O)c2c(c3ccccc3n2C)-c2ccccc2CO[C@H]1CN(C)C(=O)Nc1cccc(Cl)c1Cl
[1]
  AC50: 1.77 µM (active)
[2]
  AC50: 18.7 µM (active)
[3]
  AC50: 3.09 µM (active)
[4]
  AC50: 0.785 µM (active)
[5]
  AC50: 0.897 µM (active)

## COc1cc(OC)nc(Nc2nc(C(N)Cc3ccc(C(F)(F)F)cc3)cs2)n1 (centres undefined)
[24]
  AC50: 7.58 µM (active)
[26]
  AC50: 7.18 µM (active)
[27]
  AC50: 18.9 µM (active)
[28]
  AC50: 24.8 µM (active)
[25]
  AC50: 15.7 µM (active)

## COCC(=O)N1[C@@H]2c3ccc(/C=C/c4ccccc4)c(=O)n3C[C@H]1[C@H](CO)[C@H]2C(=O)N1CCOCC1
[29]
  AC50: 4.85 µM (active)

## O=C(O)CN1C(=O)/C(=C\c2cc(Br)ccc2OCc2ccc(F)cc2)SC1=S
[30]
  EC50: > 260 µM (inactive)
Genome polyprotein
  IC50: 31.4 µM (active)
[31]
  AC50: 18.5 µM (active)

## CCOc1ccc(-n2c(N)c(-c3nc4ccccc4[nH]3)sc2=S)cc1
[32]
  IC50: > 122 µM (inactive)

## CCCC(CCC)C(=O)O [VALPROIC ACID]
[33]
  IC50: > 33.3 µM (inactive)

## Cc1cccc(/C=N/c2ccccc2C(N)=O)c1
Kallikrein-7
  EC50: > 69.5 µM (inactive)

## CC(=O)n1cc([C@@H]2C=C(C(=O)Nc3ccccc3)O[C@H](OCc3ccc(CO)cc3)C2)c2ccccc21
[34]
  IC50: > 69.5 µM (inactive)
[35]
  IC50: > 69.5 µM (inactive)

## C/C(=N\NC(=O)CC#N)c1cc2ccc(O)cc2oc1=O
[29]
  AC50: 6.38 µM (active)

## COCCCN1C(=O)C(O)=C(C(=O)c2ccco2)C1c1cccc(Br)c1 (centres undefined)
fMet-Leu-Phe receptor
  Ki: 31.2 µM (inactive)

Source: ChEMBL document CHEMBL1201862, “PubChem BioAssay data set” (2004)
